Reference: patent publication US10760110B2, “Antibiotic testing and screening system” (priority 2017, dated 2020)
Where two headings read alike, the source gives them in different places.

Legend:
[1] = tested on: K. pneumoniae NVT1001 and its GyrA/ParC and ΔramR mutants; test: Etest MIC of quinolones, GyrA/ParC mutations and AcrAB-TolC overexpression (ΔramR) (Table 10); type: cell-based; settings: Klebsiella pneumoniae
Source text: DNA fragments of the entire gyrA and parC sequences along with their flanking regions were amplified from K. pneumoniae strain NVT1001 using PCR with specific primer pairs and then cloned into the plasmid pUT-KB. The QuikChange site-directed mutagenesis kit (Stratagene) was used to generate mutations in the gyrA and parC genes in the plasmid using the methods described by the manufacturer. For homologous recombination, plasmids containing mutations in the gyrA or parC gene were transformed into E. coli S17-1 λpir^23 via electroporation and mobilized into K. pneumoniae strain NVT1001 via conjugation. Single-crossover strains were selected from BIND plates supplemented with kanamycin (50 mg/L), as the growth of non-K. pneumoniae contaminants is suppressed on BIND plates.^24 After the kanamycin-resistant transconjugants were selected, the insertion of plasmids was verified via PCR. After incubation in 20 mL BHI broth for 6 hours at 37° C. in the absence of kanamycin, the fully grown cultures were spread onto LB agar plates supplemented with 10% sucrose. After the double crossover occurred, the sucrose-resistant and kanamycin-susceptible colonies were selected, and the gene mutations were confirmed via PCR.
(§1) The MICs of antibiotics were determined using the Etest (Biodisk AB, Sweden) according to the manufacturer's instructions. The MICs from the Etest, which fall between standard two-fold dilutions, were rounded up to the next highest two-fold value. The MICs of ceftazidime and cefotaxime against K. pneumoniae NVT1001 harbouring the pACYC177 plasmid with blaOXA-48 were further determined using a broth microdilution test according to the recommendations of the CLSI,^25 and the results were interpreted according to the breakpoints established by the CLSI in 2017.^25 Meanwhile, due to the lack of CLSI breakpoints in 2016 and 2017, the results for cephalothin were interpreted according to the breakpoints established by the CLSI in 2015,^26 and the results for moxifloxacin were interpreted according to the breakpoints established by the EUCAST in 2017.^27

[2] = tested on: K. pneumoniae NVT1001 strains with QnrB, QnrS or AAC(6′)-Ib-cr plasmids; test: Etest MIC of quinolones, GyrA/ParC mutations, ΔramR and/or QnrB, QnrS or AAC(6′)-Ib-cr (Table 12); type: cell-based; settings: Klebsiella pneumoniae
Experimental: DNA fragments of the resistance genes along with their flanking regions were amplified from clinical plasmids via PCR with specific primer pairs. The resulting PCR fragments were digested and then cloned into the plasmid pACYC177 or pACYC184. The resulting plasmids were then transformed into K. pneumoniae strain NVT1001 via electroporation. The recombinant bacteria were plated onto LB agar plates containing kanamycin (50 mg/L) or chloramphenicol (50 mg/L), and the presence of the cloned gene was confirmed via PCR and DNA sequencing.
as §1

[3] = AAC(6′)-Ib-cr on pACYC177, S83I mutant
[4] = AAC(6′)-Ib-cr on pACYC177, S83I/D87N/S80I mutant
[5] = AAC(6′)-Ib-cr on pACYC177, S83I/S80I mutant
[6] = AAC(6′)-Ib-cr on pACYC177, WT (NVT1001), read-out: MIC
[7] = AAC(6′)-Ib-cr on pACYC177, ΔramR mutant
[8] = AAC(6′)-Ib-cr on pACYC177, ΔramR/S83I mutant
[9] = AAC(6′)-Ib-cr on pACYC177, ΔramR/S83I/D87N/S80I mutant
[10] = AAC(6′)-Ib-cr on pACYC177, ΔramR/S83I/S80I mutant
[11] = QnrB on pACYC177, S83I/D87N/S80I mutant
[12] = QnrB on pACYC177, S83I/S80I mutant
[13] = QnrB on pACYC177, WT (NVT1001), read-out: MIC
[14] = QnrB on pACYC177, ΔramR/S83I mutant
[15] = QnrB on pACYC177, ΔramR/S83I/D87N/S80I mutant
[16] = QnrB on pACYC177, ΔramR/S83I/S80I mutant
[17] = QnrS on pACYC177, S83I/D87N/S80I mutant
[18] = QnrS on pACYC177, S83I/S80I mutant
[19] = QnrS on pACYC177, WT (NVT1001), read-out: MIC
[20] = QnrS on pACYC177, ΔramR/S83I mutant
[21] = QnrS on pACYC177, ΔramR/S83I/D87N/S80I mutant
[22] = QnrS on pACYC177, ΔramR/S83I/S80I mutant
[23] = no supplemental plasmid, S83I mutant
[24] = no supplemental plasmid, S83I/D87N/S80I mutant
[25] = no supplemental plasmid, S83I/S80I mutant
[26] = no supplemental plasmid, WT (NVT1001), read-out: MIC
[27] = no supplemental plasmid, ΔramR mutant
[28] = no supplemental plasmid, ΔramR/S83I mutant
[29] = no supplemental plasmid, ΔramR/S83I/D87N/S80I mutant
[30] = no supplemental plasmid, ΔramR/S83I/S80I mutant

C[C@H]1COc2c(N3CCN(C)CC3)c(F)cc3c(=O)c(C(=O)O)cn1c23 [Levofloxacin, levofloxacin]
MIC ([1]; D87N mutant (GyrA D87N)): 0.5 µg/mL | MIC ([1]; D87N/S80I mutant): 0.5 µg/mL | MIC ([1]; NVT1001, read-out: MIC): 0.06 µg/mL | MIC ([1]; S80I mutant (ParC S80I)): 0.125 µg/mL | MIC ([1]; S83F mutant (GyrA S83F)): 0.5 µg/mL | MIC ([1]; S83F/D87N mutant): 0.5 µg/mL | MIC ([1]; S83F/D87N/S80I mutant): 8 µg/mL | MIC ([1]; S83F/S80I mutant): 0.5 µg/mL | MIC ([1]; S83I mutant (GyrA S83I)): 0.5 µg/mL | MIC ([1]; S83I/D87N mutant): 1 µg/mL | MIC ([1]; S83I/D87N/S80I mutant): 8 µg/mL | MIC ([1]; S83I/S80I mutant): 2 µg/mL | MIC ([1]; S83L mutant (GyrA S83L)): 0.5 µg/mL | MIC ([1]; S83L/D87N mutant): 0.5 µg/mL | MIC ([1]; S83L/D87N/S80I mutant): 8 µg/mL | MIC ([1]; S83L/S80I mutant): 1 µg/mL | MIC ([1]; S83Y mutant (GyrA S83Y)): 0.5 µg/mL | MIC ([1]; S83Y/D87N mutant): 0.5 µg/mL | MIC ([1]; S83Y/D87N/S80I mutant): 4 µg/mL | MIC ([1]; S83Y/S80I mutant): 1 µg/mL | MIC ([1]; ΔramR mutant): 1 µg/mL | MIC ([1]; ΔramR/S83I mutant): 16 µg/mL | MIC ([1]; ΔramR/S83I/D87N/S80I mutant): > 32 µg/mL | MIC ([1]; ΔramR/S83I/S801 mutant): > 32 µg/mL | MIC [2, 3]: 0.5 µg/mL | MIC [2, 4]: 8 µg/mL | MIC [2, 5]: 2 µg/mL | MIC [2, 6]: 0.06 µg/mL | MIC [2, 7]: 1 µg/mL | MIC [2, 8]: 8 µg/mL | MIC [2, 9]: > 32 µg/mL | MIC [2, 10]: > 32 µg/mL | MIC ([2]; QnrB on pACYC177, S83I mutant): 2 µg/mL | MIC [2, 11]: > 32 µg/mL | MIC [2, 12]: 16 µg/mL | MIC [2, 13]: 1 µg/mL | MIC ([2]; QnrB on pACYC177, ΔramR mutant): 8 µg/mL | MIC [2, 14]: > 32 µg/mL | MIC [2, 15]: > 32 µg/mL | MIC [2, 16]: > 32 µg/mL | MIC ([2]; QnrS on pACYC177, S83I mutant): 4 µg/mL | MIC [2, 17]: > 32 µg/mL | MIC [2, 18]: 32 µg/mL | MIC [2, 19]: 1 µg/mL | MIC ([2]; QnrS on pACYC177, ΔramR mutant): 8 µg/mL | MIC [2, 20]: > 32 µg/mL | MIC [2, 21]: > 32 µg/mL | MIC [2, 22]: > 32 µg/mL | MIC [2, 23]: 0.5 µg/mL | MIC [2, 24]: 8 µg/mL | MIC [2, 25]: 2 µg/mL | MIC [2, 26]: 0.06 µg/mL | MIC [2, 27]: 1 µg/mL | MIC [2, 28]: 16 µg/mL | MIC [2, 29]: > 32 µg/mL | MIC [2, 30]: > 32 µg/mL

CCn1cc(C(=O)O)c(=O)c2cc(F)c(N3CCNCC3)cc21 [Norfloxacin, norfloxacin]
MIC ([1]; D87N mutant (GyrA D87N)): 2 µg/mL | MIC ([1]; D87N/S80I mutant): 2 µg/mL | MIC ([1]; NVT1001, read-out: MIC): 0.25 µg/mL | MIC ([1]; S80I mutant (ParC S80I)): 0.25 µg/mL | MIC ([1]; S83F mutant (GyrA S83F)): 2 µg/mL | MIC ([1]; S83F/D87N mutant): 2 µg/mL | MIC ([1]; S83F/D87N/S80I mutant): 32 µg/mL | MIC ([1]; S83F/S80I mutant): 8 µg/mL | MIC ([1]; S83I mutant (GyrA S83I)): 2 µg/mL | MIC ([1]; S83I/D87N mutant): 2 µg/mL | MIC ([1]; S83I/D87N/S80I mutant): 64 µg/mL | MIC ([1]; S83I/S80I mutant): 16 µg/mL | MIC ([1]; S83L mutant (GyrA S83L)): 2 µg/mL | MIC ([1]; S83L/D87N mutant): 2 µg/mL | MIC ([1]; S83L/D87N/S80I mutant): 64 µg/mL | MIC ([1]; S83L/S80I mutant): 8 µg/mL | MIC ([1]; S83Y mutant (GyrA S83Y)): 2 µg/mL | MIC ([1]; S83Y/D87N mutant): 2 µg/mL | MIC ([1]; S83Y/D87N/S80I mutant): 32 µg/mL | MIC ([1]; S83Y/S80I mutant): 8 µg/mL | MIC ([1]; ΔramR mutant): 2 µg/mL | MIC ([1]; ΔramR/S83I mutant): 8 µg/mL | MIC ([1]; ΔramR/S83I/D87N/S80I mutant): > 256 µg/mL | MIC ([1]; ΔramR/S83I/S801 mutant): 128 µg/mL | MIC [2, 3]: 8 µg/mL | MIC [2, 4]: > 256 µg/mL | MIC [2, 5]: 128 µg/mL | MIC [2, 6]: 1 µg/mL | MIC [2, 7]: 8 µg/mL | MIC [2, 8]: 128 µg/mL | MIC [2, 9]: > 256 µg/mL | MIC [2, 10]: > 256 µg/mL | MIC ([2]; QnrB on pACYC177, S83I mutant): 8 µg/mL | MIC [2, 11]: > 256 µg/mL | MIC [2, 12]: > 256 µg/mL | MIC [2, 13]: 2 µg/mL | MIC ([2]; QnrB on pACYC177, ΔramR mutant): 16 µg/mL | MIC [2, 14]: 64 µg/mL | MIC [2, 15]: > 256 µg/mL | MIC [2, 16]: > 256 µg/mL | MIC ([2]; QnrS on pACYC177, S83I mutant): 8 µg/mL | MIC [2, 17]: 128 µg/mL | MIC [2, 18]: 64 µg/mL | MIC [2, 19]: 2 µg/mL | MIC ([2]; QnrS on pACYC177, ΔramR mutant): 32 µg/mL | MIC [2, 20]: 64 µg/mL | MIC [2, 21]: > 256 µg/mL | MIC [2, 22]: > 256 µg/mL | MIC [2, 23]: 2 µg/mL | MIC [2, 24]: 64 µg/mL | MIC [2, 25]: 16 µg/mL | MIC [2, 26]: 0.25 µg/mL | MIC [2, 27]: 2 µg/mL | MIC [2, 28]: 8 µg/mL | MIC [2, 29]: > 256 µg/mL | MIC [2, 30]: 128 µg/mL
